The molecules below were run on hedgehog signaling pathway (assay: Colon cancer cells co-cultured with 10T(S12) reporter cells, luciferase activity). Conditions: 20,000 colon cancer cells mixed with 10,000 10T(S12) cells, 72 hrs incubation.
Type: cell-based
Protocol: 20,000 colon cancer cells were mixed with 10,000 10T(S12) cells (described above), and the mixture was added to each well in a 96-well plate. A subject compound or control vehicle was added to the culture on the next day. After 72 hrs of incubation, the cells were lysed for measuring the luciferase activity. […] FIG. 35 depicts the comparative inhibition of hedgehog-induced activation in S12 cells for the antibodies 1E6 and 5E1 and compound A, and the comparative inhibition of endogenous hedgehog activity in colon cancer cells for these compositions.

SMILES | inhibition of luciferase activity compared to vehicle
COc1cc(OC)cc(C(=O)Nc2ccc(Cl)c(-c3nc4ccccc4[nH]3)c2)c1 [Compound A] | able to inhibit the lucferase activity

These molecules were tested on Hedgehog pathway (assay: Gli-Luc reporter assay in human embryonic palatal mesenchyme cells, OCT-SHH stimulated). Conditions: human-based Gli-Luc assay, OCT-SHH 1 μg/ml.
Type: cell-based
Protocol: (§1) Compounds to be tested are dissolved in DMSO to a concentration of 10 mM, and stored at −20° C. To activate the Hedgehog pathway in the assay cells, an octylated (lipid-modified) form of the N-terminal fragment of the Sonic Hedgehog protein (OCT-SHH) is used. This N-terminal SHH fragment is produced bacterially. See, for example, Taylor F R, et al., Biochemistry 2001, 40, 4359-71.
(§2) Compounds may be tested in the “Gli-Luc” assay below, using the cell line 10T1/2(s12), wherein the cells contain a Hedgehog-responsive reporter construct utilizing Luciferase as the reporter gene. In this way, Hedgehog pathway signaling activity can be measured via the Gli-Luc response.
(§3) 10t1/2(s12) cells are plated in a 96-well micro-titer plate (MTP) at 20,000 cells/well in full medium [DMEM with […]]. Then plates are placed in the incubator for incubation overnight (O/N), at 37° C. and 5% CO2. After 24 h, the medium is replaced with Luciferase-assay medium (DMEM with 0.5% FBS). Compounds are thawed and diluted in assay medium at 3:1000 (about 300-fold) resulting in a starting concentration of about 0.0003 μM to 30 μM.
(§4) Subsequently, 150 μl each sample is added to the first wells (in triplicate). The MTP samples are then diluted at 3-fold dilutions to a total of seven wells, ultimately resulting in a regiment of seven dilutions in triplicate, for each compound. Next, the protein ligand OCT-SHH is diluted in Luciferase-assay medium and added to each well at a final concentration of […] Plates are then returned to the incubator for further incubation O/N, at 37° C. and 5% CO2. After about 24 h, plates are removed from the incubator and the medium is aspirated/discarded. Wells are washed once with assay buffer [PBS+1 mM Mg^2+ and 1 mM Ca^2+]. Then 50 μl of assay buffer is added to each well. The Luciferase assay reagent is prepared as described by the vendor (LucLite kit from Packard), and 50 μl is added to each well. Plates are incubated at room temperature (RT) for about 30 minutes after which the signals are read, again at RT, on a Topcount (Packard).
Similar assays were performed using human cell lines (specifically, human embryonic palatal mesenchyme cells, modified with the Gli-Luc construct as described above) in a growth medium of MEM/Sodium Pyruvate w/10% MS, and an assay medium of MEM/Sodium Pyruvate w/0.5% FBS. OCT-SHH was added to reach a final concentration of 1 μg/ml.

SMILES | IC50 [nM]
O=C(Nc1ccc(Cl)c(-c2nc3ccccc3[nH]2)c1)c1cccnc1 [B] | < 50
O=C(Nc1ccc(Cl)c(-c2nc3ccccc3[nH]2)c1)c1ccc2c(c1)OCCO2 [C] | < 500
COc1cc(OC)cc(C(=O)Nc2ccc(Cl)c(-c3nc4ccccc4[nH]3)c2)c1 [Compound A] | < 50
O=C(Nc1ccc(Cl)c(-c2nc3cc(C(F)(F)F)ccc3[nH]2)c1)c1ccc2c(c1)OCCO2 [W] | < 10
Cc1ccc2nc(-c3cc(NC(=O)c4ccc5c(c4)OCCO5)ccc3Cl)[nH]c2c1C [X] | < 50
COc1ccc(C(=O)Nc2ccc(Cl)c(-c3nc4cc(C)c(C)cc4[nH]3)c2)cc1Cl [Y] | < 50
COc1cc(OC)cc(C(=O)Nc2ccc(Cl)c(-c3nc4c(C)cccc4[nH]3)c2)c1 [Z] | < 50

Each molecule was assayed on Hedgehog pathway (assay: Gli-Luc reporter assay in 10T1/2(s12) cells, OCT-SHH stimulated). Conditions: compounds E-V: not from the human-based assay; Gli-Luc assay in 10T1/2(s12) cells.
Type: cell-based
Protocol: as §1, §2, §3, §4

SMILES | IC50 [µM]
Cc1ccccc1OCC(=O)Nc1ccc(Cl)c(-c2nc3ccccc3[nH]2)c1 [E] | < 5
Cc1ccc(C(=O)Nc2ccc(Cl)c(-c3nc4ccccc4[nH]3)c2)cc1[N+](=O)[O-] [J] | < 5
COc1cc(C(=O)Nc2ccc(Cl)c(-c3nc4ccccc4[nH]3)c2)cc(OC)c1OC [L] | < 5
